Measured values from patent publication US12144800B2 (priority 2015, dated 2024).
Read-outs that look alike come from different tables or passages of the source.

What was measured:
C. perfringens strains = format: cell-based, Clostridium perfringens
C. perfringens spores [1] = format: cell-based, Clostridium perfringens; conditions: for triggering of spore germination by detergent: even in the presence of excess L-alanine; for induction of spore germination by bile salt in the presence of amino acids: BA pathway
C. perfringens spores [2] = conditions: with L-alanine, in place of L-phenylalanine
C. perfringens spores [3] = format: cell-based, Clostridium perfringens; conditions: for effect of added salt on AA pathway response / effect of added salt on BA germination pathway: potassium phosphate or sodium phosphate buffer; for effect of added salt on AA pathway response / effect of added salt on BA germination pathway / effect of added salt on BA pathway: 150 mM salt; for effect of added salt on BA pathway: spores resuspended in sodium phosphate buffer
C. perfringens spores [4] = assay: microbe, parasite or virus in culture; conditions: Clostridium perfringens, read-out: IC50, inhibition of C. perfringens spore germination
C. perfringens spores [5] = conditions: spore germination inhibition
[6] = in the presence of theobromine, strains 1936, 1473, 1882

OC[C@H]1O[C@H](OC[C@H]2O[C@H](O[C@]3(CO)O[C@H](CO)[C@@H](O)[C@@H]3O)[C@H](O)[C@@H](O)[C@@H]2O)[C@H](O)[C@@H](O)[C@H]1O [raffinose]
sporulation with the carbon source (C. perfringens strains; 0.5% carbon source in solid medium): preferred carbon source

C[C@H](CCC(=O)O)[C@H]1CC[C@H]2[C@@H]3[C@H](O)C[C@@H]4C[C@H](O)CC[C@]4(C)[C@H]3CC[C@]12C [chenodeoxycholate]
induction or inhibition of spore germination in the presence of L-alanine (C. perfringens spores [1]; FIG. 3B): did not induce or inhibit

N[C@@H](Cc1ccc(O)cc1)C(=O)O [L-tyrosine]
germination rate slower than with L-phenylalanine (C. perfringens spores [2]): more than 50%

Triton-X-100
triggering of spore germination by detergent (C. perfringens spores [1]): Neither detergent was able to trigger

C[C@H](CCC(=O)NCC(=O)O)[C@H]1CC[C@H]2[C@@H]3[C@H](O)C[C@@H]4C[C@H](O)CC[C@]4(C)[C@H]3C[C@H](O)[C@]12C [Glycocholate]
induction of spore germination by bile salt in the presence of amino acids (C. perfringens spores [1]): induced C. perfringens spore germination

C[C@H](CCC(=O)NCCS(=O)(=O)O)[C@H]1CC[C@H]2[C@@H]3[C@H](O)C[C@@H]4C[C@H](O)CC[C@]4(C)[C@H]3CC[C@]12C [taurochenodeoxycholate]
induction of spore germination by bile salt in the presence of amino acids (C. perfringens spores [1]): induced C. perfringens spore germination

[Cl-].[Na+] [NaCl]
effect of added salt on AA pathway response (C. perfringens spores [3]): did not affect
effect of added salt on BA germination pathway (C. perfringens spores [3]): did not affect

[Br-].[Na+] [NaBr]
effect of added salt on AA pathway response (C. perfringens spores [3]): did not affect
effect of added salt on BA germination pathway (C. perfringens spores [3]): did not affect

C[C@H](CCC(=O)O)[C@H]1CC[C@H]2[C@@H]3[C@H](O)C[C@@H]4C[C@H](O)CC[C@]4(C)[C@H]3C[C@H](O)[C@]12C [Cholate]
induction or inhibition of spore germination in the presence of L-alanine (C. perfringens spores [1]): did not induce or inhibit

[Cl-].[K+] [KCl]
effect of added salt on AA pathway response (C. perfringens spores [3]): did not affect
effect of added salt on BA pathway (C. perfringens spores [3]): induced the BA pathway

CSc1nc2ccccc2s1 [2-MTB, 2-methylthiobenzothiazole]
IC50 (C. perfringens spores [4]): 74 µM

deoxycholate
induction or inhibition of spore germination in the presence of L-alanine (C. perfringens spores [1]; FIG. 3B): did not induce or inhibit

COc1nc2ccccc2s1 [MOB, 2-methoxy benzothiazole]
inhibitory concentration compared with other analogs (C. perfringens spores [5]): approximately ten times lower than other analogs
IC50 (C. perfringens spores [4]): 98 µM

CCCCCCCCCCCCOS(=O)(=O)[O-].[Na+] [SDS]
triggering of spore germination by detergent (C. perfringens spores [1]): Neither detergent was able to trigger

C[C@H](CCC(=O)NCCS(=O)(=O)O)[C@H]1CC[C@H]2[C@@H]3CC[C@@H]4C[C@H](O)CC[C@]4(C)[C@H]3C[C@H](O)[C@]12C [taurodeoxycholate]
induction of spore germination by bile salt in the presence of amino acids (C. perfringens spores [1]): induced C. perfringens spore germination

Cn1cnc2c1c(=O)[nH]c(=O)n2C [theobromine]
time at which spores could be detected (C. perfringens strains; [6]): two days after plating
time of maximum sporulation levels (C. perfringens strains; [6]): 5-7 days post-plating
effect of theobromine on sporulation level (C. perfringens strains; strain 1473): decreased
Theobromine, effect on sporulation (C. perfringens strains; strain 1473, inoculum BHI, peptone #3): Increases sporulation
Theobromine, effect on sporulation (C. perfringens strains; strain 1473, inoculum Thioglycollate, peptone #1): Reduces sporulation
Theobromine, effect on sporulation (C. perfringens strains; strain 1521, inoculum Thioglycollate, peptone #1): Required for sporulation
effect of theobromine on sporulation level (C. perfringens strains; strain 1882): increased
Theobromine, effect on sporulation (C. perfringens strains; strain 1882, inoculum BHI, peptone #2): Increases sporulation
effect of theobromine on sporulation level (C. perfringens strains; strain 1936): remained unchanged
Theobromine, effect on sporulation (C. perfringens strains; strain 1936, inoculum BHI, peptone #1): No effect on sporulation
Theobromine, effect on sporulation (C. perfringens strains; strain 4064, inoculum BHI, peptone #1): Required for sporulation
Theobromine, effect on sporulation (C. perfringens strains; strain 4104, inoculum BHI, peptone #3): Required for sporulation
Theobromine, effect on sporulation (C. perfringens strains; strain 4104, inoculum Thioglycollate, peptone #3): Required for sporulation
Theobromine, effect on sporulation (C. perfringens strains; strain 4121, inoculum Thioglycollate, peptone #2): Required for sporulation
effect on sporulation times (C. perfringens strains; strains 1936, 1473, 1882): reduced sporulation times
effect of theobromine on sporulation (C. perfringens strains; strains 4104, 4064, 1521, 4121, solid media): only sporulated robustly when theobromine was added

O=C([O-])O.[Na+] [sodium bicarbonate]
effect of added bicarbonate on germination rate (C. perfringens spores [3]): increased germination rate

[Br-].[K+] [KBr]
effect of added salt on AA pathway response (C. perfringens spores [3]): did not affect
effect of added salt on BA pathway (C. perfringens spores [3]): induced the BA pathway

O=C([O-])O.[K+] [potassium bicarbonate]
effect of added bicarbonate on germination rate (C. perfringens spores [3]): increased germination rate
